Test results as given in patent publication US20240279218A1 (Hoffmann-La Roche Inc., priority 2016, published 2024).
pKi: −log10 of the molar value.

Tests used:
[1] = biological target: T1, h-GABA-A α5β3γ2 (Homo sapiens (Human), UniProt P18507+P31644); assay: [3H]flumazenil competition binding assay, membranes of HEK293 cells expressing human GABAA receptors; conditions: displacement of [3H]flumazenil 0.5 nM, HEK293 cells expressing human receptors, mean of two determinations; read-out: Ki h-GABA-A α5β3γ2
How it was run: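 Membranes were prepared from HEK293 cells with transient human α5β3γ2 expression and assayed in Krebs-tris, pH 7.5. Bound radioactivity measured on filters by liquid scintillation.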

[2] = biological target: T1, h-GABA-A α5β3γ2; assay: Two-electrode voltage clamp electrophysiology in Xenopus oocytes expressing GABAA receptors, modulation of GABA EC20 current; assay type: cell-based; conditions: Xenopus oocytes; for Efficacy (GABA) %: % modulation of GABA EC20 = 100*(Fold increase−1); for Fold increase h-GABA-A α5β3γ2 oocyte: GABA EC20, test compound at approx. 30 fold its Ki
How it was run: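 Values are % modulation of an EC20 GABA response, derived point by point from the ratio of compound-exposed versus control current traces (extremum taken, 100×(fold−1)). Recordings used oocytes injected with human α5, β3, γ2 mRNA, clamped at −80 mV at room temperature, at least 3 oocytes each.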

pKi [1]	Efficacy (GABA) % [2] [%]	Fold increase h-GABA-A α5β3γ2 oocyte [2]	SMILES
7.72	66	1.66	Cc1ccc(-c2noc(C)c2COc2ccc(C(=O)N[C@H]3C[C@@H](OCC(F)F)C3)nn2)cn1 [Example 169, cis-N-3-((2,2-difluoroethoxy)cyclobutyl)-6-((5-methyl-3-(6-methylpyridin-3-yl)isoxazol-4-yl)methoxy)pyridazine-3-carboxamide]
8.06	60	1.6	Cc1ccc(-c2noc(C)c2COc2ccc(C(=O)N[C@H]3C[C@H](OCC(F)F)C3)nn2)cn1 [Example 170, trans-N-3-((2,2-difluoroethoxy)cyclobutyl)-6-((5-methyl-3-(6-methylpyridin-3-yl)isoxazol-4-yl)methoxy)pyridazine-3-carboxamide]
7.74	72	1.72	CCO[C@H]1C[C@@H](NC(=O)c2ccc(OCc3c(-c4ccc(C)nc4)noc3C)nn2)C1 [Example 171, cis-N-(3-ethoxycyclobutyl)-6-((5-methyl-3-(6-methylpyridin-3-yl)isoxazol-4-yl)methoxy)pyridazine-3-carboxamide]
8.06	65	1.65	CCO[C@H]1C[C@H](NC(=O)c2ccc(OCc3c(-c4ccc(C)nc4)noc3C)nn2)C1 [Example 172, trans-N-(3-ethoxycyclobutyl)-6-((5-methyl-3-(6-methylpyridin-3-yl)isoxazol-4-yl)methoxy)pyridazine-3-carboxamide]
7.81	68	1.68	Cc1ccc(-c2noc(C)c2COc2ccc(C(=O)N[C@H]3C[C@@H](OC(F)F)C3)nn2)cn1 [Example 173, cis-N-(3-(difluoromethoxy)cyclobutyl)-6-((5-methyl-3-(6-methylpyridin-3-yl)isoxazol-4-yl)methoxy)pyridazine-3-carboxamide]
8.06	55	1.55	Cc1ccc(-c2noc(C)c2COc2ccc(C(=O)N[C@H]3C[C@H](OC(F)F)C3)nn2)cn1 [Example 174, trans-N-(3-(difluoromethoxy)cyclobutyl)-6-((5-methyl-3-(6-methylpyridin-3-yl)isoxazol-4-yl)methoxy)pyridazine-3-carboxamide]
8.00	82	1.82	Cc1ccc(-c2noc(C)c2COc2ccc(C(=O)N[C@H]3C[C@H](OC4CC4)C3)nn2)cn1 [Example 175, trans-N-(3-cyclopropoxycyclobutyl)-6-((5-methyl-3-(6-methylpyridin-3-yl)isoxazol-4-yl)methoxy)pyridazine-3-carboxamide]
7.90	64	1.64	Cc1ccc(-c2noc(C)c2COc2ccc(C(=O)N[C@H]3C[C@@H](OC4CC4)C3)nn2)cn1 [Example 176, cis-N-(3-cyclopropoxycyclobutyl)-6-((5-methyl-3-(6-methylpyridin-3-yl)isoxazol-4-yl)methoxy)pyridazine-3-carboxamide]
7.40	109	2.09	CC1(NC(=O)c2ccc(OCc3c(-c4ccc(Cl)nc4)noc3C3CC3)nn2)COC1 [Example 177]
7.37	73	1.73	O=C(NC1CC2(COC2)C1)c1ccc(OCc2c(-c3ccc(Cl)nc3)noc2C2CC2)nn1 [Example 178, 6-((3-(6-chloropyridin-3-yl)-5-cyclopropylisoxazol-4-yl)methoxy)-N-(2-oxaspiro[3.3]heptan-6-yl)pyridazine-3-carboxamide]
7.49	173	2.73	Cc1ccc(-c2noc(C3CC3)c2COc2ccc(C(=O)NC3(C)COC3)nn2)cn1 [Example 180]
7.17	147	2.47	Cc1ccc(-c2noc(C3CC3)c2COc2ccc(C(=O)NC3CC4(COC4)C3)nn2)cn1 [Example 181, 6-((5-cyclopropyl-3-(6-methylpyridin-3-yl)isoxazol-4-yl)methoxy)-N-(2-oxaspiro[3.3]heptan-6-yl)pyridazine-3-carboxamide]
7.22	141	2.41	Cc1ccc(-c2noc(C3CC3)c2COc2ccc(C(=O)N[C@H]3CCOC3)nn2)cn1 [Example 182]
7.25	213	3.13	Cc1ccc(-c2noc(C3CC3)c2COc2ccc(C(=O)NC3CCOCC3)nn2)cn1 [Example 183, 6-((5-cyclopropyl-3-(6-methylpyridin-3-yl)isoxazol-4-yl)methoxy)-N-(tetrahydropyran-4-yl)pyridazine-3-carboxamide]
7.29	96	1.96	Cc1ccc(-c2noc(CF)c2COc2ccc(C(=O)NC3(C(F)(F)F)CC3)nn2)cn1 [Example 184, 6-((5-(fluoromethyl)-3-(6-methylpyridin-3-yl)isoxazol-4-yl)methoxy)-N-(1-(trifluoromethyl)cyclopropyl)pyridazine-3-carboxamide]
7.15	124	2.24	Cc1onc(-c2ccc(C(F)(F)F)nc2)c1COc1ccc(C(=O)NC2CCOCC2)nn1 [Example 185, 6-((5-methyl-3-(6-(trifluoromethyl)pyridin-3-yl)isoxazol-4-yl)methoxy)-N-(tetrahydropyran-4-yl)pyridazine-3-carboxamide]
7.78	72	1.72	Cc1ccc(-c2noc(C)c2COc2ccc(C(=O)N[C@H]3CC4CCC3O4)nn2)cn1 (stereo partly drawn) [Example 186, N-((2S)-7-oxabicyclo[2.2.1]heptan-2-yl)-6-((5-methyl-3-(6-methylpyridin-3-yl)isoxazol-4-yl)methoxy)pyridazine-3-carboxamide]
7.90	63	1.63	CCO[C@@H]1CC[C@@H](NC(=O)c2ccc(OCc3c(-c4ccc(C)nc4)noc3C)nn2)C1 [Example 190, N-((1R,3R)-3-ethoxycyclopentyl)-6-((5-methyl-3-(6-methylpyridin-3-yl)isoxazol-4-yl)methoxy)pyridazine-3-carboxamide]
7.95	60	1.6	Cc1ccc(-c2noc(C)c2COc2ccc(C(=O)N[C@@H]3CC[C@@H](OCC(F)F)C3)nn2)cn1 [Example 191, N-((1R,3R)-3-(2,2-difluoroethoxy)cyclopentyl)-6-((5-methyl-3-(6-methylpyridin-3-yl)isoxazol-4-yl)methoxy)pyridazine-3-carboxamide]
8.52	56	1.56	Cc1ccc(-c2noc(CF)c2COc2ccc(C(=O)NC3CCOCC3)nn2)nn1 [Example 192, 6-((5-(fluoromethyl)-3-(6-methylpyridazin-3-yl)isoxazol-4-yl)methoxy)-N-(tetrahydropyran-4-yl)pyridazine-3-carboxamide]
